Results: patent US6066333A, “Pharmaceutical control of inflammation” (William Harvey Research Limited, priority 1994, dated 2000)
Entries after “also recorded” stand apart in the source; their conditions may differ.

Legend:
[1] = tested on: heme-oxygenase (brain homogenates); experiment: heme-oxygenase activity in rat brain homogenates; assay type: biochemical; settings: for effect on brain HO activity: 0.1-10 mM (sodium nitroprusside 0.001-10 mM)
Protocol: (§1) The brains and spleens of male Wistar rats (160±20 g, Tuck Co. UK) were homogenized using a glass homogenizer, in protease inhibitory buffer; phenylmethylsulfonyl fluoride 1 mM, pepstatin A 1.5 mM and leupeptin 0.2 mM, in 10 mM phosphate buffered saline pH 7.3. Protein determinations were carried by the Bradford method, bovine serum albumin was used as protein standard.
(§2) Heme-oxygenase activity was assayed as previously described (Sierra, E. E. et al., (1992) Analytical Biochem. 200, 27-30).
(§3) Briefly, the 15 μl reaction mixture consisted of 11.2 μM [^14 C] heme (specific activity 54 Ci/mol), 1 mM NADPH, 2 mM glucose-6-phosphate, 0.1 units of glucose-6-phosphate dehydrogenase, 3 mg/ml liver cytosolic protein, 100-50 μg of sample protein and the relevant concentration of test drugs; L-arginine, D-arginine, NG-nitro-L-arginine methyl ester (L-NAME) or sodium nitroprusside. The reaction mixture containing the test drugs was allowed to equilibrate at 37° C. for 15 mins before the reaction was started by the addition of the heme. The reaction was terminated after 30 mins by the addition of excess cold heme and bilirubin and placed on ice. The reaction mixture was spotted on to the silica gel thin-layer chromatography sheet by 2, 2 μl applications. All samples were run in duplicate. The chromatogram was developed using a 20:1 dilution of chloroform:acetic acid. Spots corresponding to heme and bilirubin were excised and placed in 10 ml of scintillation fluid to be counted. The data was calculated as pmols bilirubin formed/mg protein/hour.
(§4) Statistical analysis of the raw data was carried using Student's unpaired t test. Results expressed as mean ± s.e.mean with P<0.05 considered as significant.

[2] = tested on: heme-oxygenase (spleen homogenates); experiment: heme-oxygenase activity in rat spleen homogenates; assay type: biochemical; settings: 0.1-10 mM (sodium nitroprusside 0.001-10 mM)
Protocol: as §1, §2, §3, §4

[3] = tested on: carrageenin pleurisy; experiment: rat carrageenin pleurisy model of acute inflammation (Example 1); assay type: in vivo; settings: for Exudate Volume / Total Cells 10^6: mean ± s.e. mean; for effect on inflammation (exudate volumes and cell numbers) at 6 hours: compared to controls; for increase of exudate volume (cell exudate) compared to vehicle control: SnPP 2 x 40 μmoles/kg s.c.
Protocol: Male Wistar rates 200±20 grams (Tuck & Sons Ltd., Essex, UK) were used for inflammation. Animals were administered either with 15 mg/kg Ferriprotoporphrin IX chloride (FePP) by intravenous injection--18 hours before inflammation or with 2 doses of 40 μmoles/kg Tin protoporphyrin dichloride (SnPP) by sub-cutaneous injection--18 hours and at the time of inflammation induction (porphyrins were obtained from Porphyrin Products Inc., Logan, Utah). Drugs were prepared in 0.1N NaOH and mixed 1:1 with saline, these were then adjusted to pH 7.4, drug vehicle. The total volume injected was 0.2 ml. Control animals received vehicle only.
Carrageenin pleurisy was induced in rats and cell pellet prepared as previously described by Tomlinson et al.
Results are expressed as the mean ± s.e. mean. Statistical analysis was determined by Mann-Whitney U-test, with a P value of <0.05 considered significant.
The effect of heme-oxygenase inhibitor Tin protoporphyrin dichloride (SnPP) and inducer ferriprotoporphyrin IX chloride (FePP) on acute inflammation was examined. Treatment animals received either 2 doses of 40 μmoles/kg SnPP s.c.--18 and 0 hours before induction of inflammation, or 1 doses of 15 mg/kg FePP i.v--18 before inflammation. Treatment animals were compared to control animals which had received vehicle only by the appropriate route.***P<0.001.

[4] = tested on: carrageenin pleurisy; experiment: rat carrageenin pleurisy, dose response of HO modulators (Example 2); assay type: in vivo; settings: for effect on the inflammatory lesion compared to vehicle control at 6 hours: 6 hours after carrageenin, PMNs phase (data not shown); for effect on inflammation at 24 hours (dose dependence): 3, 10 or 30 μmoles/kg
Protocol: Animals received 2 doses of either 3, 10 or 30 μmoles/kg SnPP (a HO inhibitor) or vehicle control--18 hours and at the time of inflammation induction. Animals received 1 dose of either 3, 10 or 30 μmoles/kg FePP (a HO inducer) or vehicle control--18 hours before induction of inflammation, n=9.
Male Wistar rats 200+20 grams were anaesthetized with halothane and 150 ul of a 1% carrageenin solution in 0.9% NaCl injected into the pleural cavity. Exudates were collected 2, 6, 12, 24 and 48 hours after injection of the irritant by pleural lavage with 1 ml protease inhibitory buffer containing: trisodium citrate 3.15%, phenylmethylsulfonyl fluoride 1 mM (Sigma Chemical Co., Poole, UK), pepstatin A 1.5 mM (Sigma) and leupeptin 0.2 mM (Sigma) in 10 mM phosphate buffered (PBS) pH 7.3. Any exudates with blood contamination were rejected. Cells were counted using a Coulter counter, model DN (Coulter Electronics Ltd., Luton, UK). Each sample was centrifuged at 800 g for 10 minutes and the resultant cell pellet prepared as outlined below.
Results are expressed as the mean ± s.e.mean for (n) experiments. Statistical analysis was determined Student's unpaired t test, with a P value of <0.05 considered significant.
To investigate whether increased HO activity was not only associated with tissue protection but also involved in resolving acute inflammation we used an HO inhibitor, tin protoporphyrin (SnPP), administered sub-cutaneously 18 hours before and at the time of carrageenin injection, and an HO inducer, ferriprotoporphyrin IX chloride (FePP), given […] 18 hours before induction of the inflammation (Maines MD et al., FASEB J. 1988; 2:2557-2568).

[5] = tested on: heme-oxygenase; experiment: HO activity of 24 hour inflammatory cells after porphyrin treatment; assay type: in vivo, rat; settings: FIGS. 15 and 16
Protocol: Cells are lysed by sonication for 10 seconds in protease inhibitory buffer. Heme-oxygenase is assayed as previously described. […] The reaction is started by the addition of the heme, incubated at 37° C. for 30 minutes and stopped by the addition of excess cold heme and bilirubin followed by placing on ice. 2 μl of reaction mixture is spotted twice onto a silica gel thin-layer chromatography sheet. The chromatogram is developed using a 20:1 dilution of chloroform:acetic acid. Spots corresponding to hem and bilirubin are were cut out and placed in 10 ml of scintillation fluid to be counted. […] The activity is expressed as pmoles bilirubin/mg protein/hour, n=9. Results are expressed as the mean ± s.e.mean.

[6] = 6 hours after carrageenin, SnPP 2 x 40 μmoles/kg s.c. (-18 and 0 h) or FePP 15 mg/kg i.v. (-18 h)
[7] = 6 hours after carrageenin, SnPP 2 x 40 μmoles/kg s.c. or FePP 15 mg/kg i.v.
[8] = 24 hours after carrageenin, SnPP 2 x 40 μmoles/kg s.c. or FePP 15 mg/kg i.v.
[9] = 24 hours, FePP 15 mg/kg i.v., P<0.001
[10] = 24 hours, FePP 3 μmole/kg, 1 dose s.c. 18 hours before

| Structure (SMILES) | effect on brain HO activity [1] | effect on spleen HO activity [2] | Exudate Volume [3, 6] [mL] | Total Cells 10^6 [3, 7] | effect on inflammation (exudate volumes and cell numbers) at 6 hours [3] | Exudate Volume [3, 8] [mL] | Total Cells 10^6 [3, 8] | effect on the inflammatory lesion compared to vehicle control at 6 hours [4] | effect on inflammation at 24 hours (dose dependence) ([4]; 24 hours) | HO activity of inflammatory pellets after treatment [5] | other results |
| --- | --- | --- | --- | --- | --- | --- | --- | --- | --- | --- | --- |
| N=C(N)NCCC[C@@H](N)C(=O)O [D-arginine] | no significant effect | not modified; also recorded: no effect | – | – | – | – | – | – | – | – | – |
| C=CC1=C(C)c2cc3[n-]c(cc4[n-]c(cc5nc(cc1n2)C(C)=C5C=C)c(C)c4CCC(=O)O)c(CCC(=O)O)c3C.[Cl-].[Fe+3] [FePP, Ferriprotoporphrin IX chloride] | – | – | 0.99 ± 0.11 | 50 ± 8 10^6 | not significantly modified | 0.37 ± 0.07 | 45 ± 6 10^6 | Neither SnPP or FePP treatments had an effect | dose dependant suppression of inflammatory cell number and exudate volume | increase | effect on inflammation (exudate volumes and cell numbers) at 6 hours ([3]; listed as hemin): no significant effect; decrease of cell number (total cells) compared to vehicle control [3, 9]: 50%; decrease of exudate volume (cell exudate) compared to vehicle control [3, 9]: 73%; decrease of exudate volume (cell exudate) compared to vehicle control ([3]; 24 hours, FePP 15 mg/kg i.v., P<0.001, listed as hemin): 83%; degree of suppression compared with conventional anti-inflammatories or steroids in this model ([4]; 24 hours): greater than that seen with optimal doses of conventional anti-inflammatories or steroids; reduction of exudate volume compared to vehicle control [4, 10]: 55%; reduction of inflammatory cell number compared to vehicle control [4, 10]: 90% |
| COC(=O)[C@@H](N)CCCNC(=N)N[N+](=O)[O-] [L-NAME, NG-nitro-L-arginine methyl ester] | dose dependent increase; also recorded: increased activity | not modified; also recorded: no effect | – | – | – | – | – | – | – | – | increase in brain HO activity ([1]; 5 mM L-NAME, vs control without compound): 80% |
| N=C(N)NCCC[C@H](N)C(=O)O [L-arginine] | dose dependent decrease; also recorded: decreased heme-oxygenase activity | not modified; also recorded: no effect | – | – | – | – | – | – | – | – | decrease in brain HO activity ([1]; 10 mM, vs control without compound, 30 min): 75% |
| C=CC1=C(C)C2=Cc3c(C=C)c(C)c4[n]3[Sn]([Cl])([Cl])[n]3c(c(C)c(CCC(=O)O)c3=CC3=NC(=C4)C(C)=C3CCC(=O)O)=CC1=N2 [SnPP, Tin protoporphyrin dichloride] | – | – | 1.59 ± 0.12 | 67 ± 6 10^6 | not significantly modified | 1.80 ± 0.21 | 58 ± 6 10^6 | Neither SnPP or FePP treatments had an effect | dose dependant increase in inflammatory exudate | reduction of HO activity | effect on inflammation (exudate volumes and cell numbers) at 6 hours ([3]; listed as tin Protoporphyrin-IX): no significant effect; increase of exudate volume (cell exudate) compared to vehicle control ([3]; 24 hours, P<0.001): 128%; increase of exudate volume (cell exudate) compared to vehicle control ([3]; 24 hours, P<0.001, listed as tin Protoporphyrin-IX): 135%; increase of exudate volume compared to vehicle control ([4]; 24 hours, 3 μmoles/kg SnPP, 2 doses s.c.): 70%; effect on exudate volume at highest dose ([4]; 24 hours, SnPP 30 μmoles/kg): increased exudate volume further; effect on inflammatory cell number at highest dose ([4]; 24 hours, SnPP 30 μmoles/kg, likely a toxic effect): decrease in inflammatory cell number |
